Values of other authors as cited in patent US9631212B2, “Gene cluster for biosynthesis of cornexistin and hydroxycornexistin” (BASF SE, priority 2012, dated 2017).
Where two headings read alike, the source gives them in different places.

Experiments:
[1] = in vivo

Compound	activity as a herbicide [1]	activity as a herbicide ([1]; listed as Cornexistin)	activity towards corn plants (corn plants)	activity towards corn plants (corn plants; listed as Cornexistin)
C/C=C1/CC2=C(C(=O)OC2=O)[C@H](CCC)[C@H](O)C(=O)C[C@@H]1O [cornexistin]	highly potent herbicides	good activity as a herbicide	harmless to corn plants	relative inactivity towards corn plants
CCC[C@H]1C2=C(C/C(=C/CO)[C@@H](O)CC(=O)[C@H]1O)C(=O)OC2=O [hydroxycornexistin]	highly potent herbicides		harmless to corn plants	
